From paper PMC4167698, “Fatty Acid Esters of Phloridzin Induce Apoptosis of Human Liver Cancer Cells through Altered Gene Expression” (PLoS ONE, 2014)

Tests used:
THP-1 cells = experiment: MTS cell proliferation assay, THP-1; assay type: cell-based, human; details: MTS
Experimental: (§1) Cell viability was determined by using the MTS assay. In brief, HepG2 cells (5×10^3 cells/100 µL/well), MDA-MB-231 (5×10^3 cells/100 µL/well), THP-1 (25×10^3/100 µL/well), normal human and rat hepatocytes (1×10^4 cells/100 µL/well) were plated in triplicate, in a 96 well sterile flat bottom tissue culture plates. […] Thereby, cells were exposed to various concentrations (0.1, 1, 10, 25, 50, 75, 100 µM) of each treatment. Controls consist of cells with media containing DMSO (<0.5%), test blank wells contained the test compound in media with no cells and blank wells contained media with no cells. After additional 3, 6, 12, 18 or 24 h, 20 µL of the MTS reagent in combination with the electron coupling agent, phenazine methosulfate were added to the wells and cells were incubated in a humidified incubator for 3 h. Absorbance at 490 nm (OD490) was measured by using a Flurostar Optima microplate reader (BMG Labtech, Cary, NC, USA) to obtain the number of viable cells relative to the control population. Percentage of viability of the test compound treated cells are expressed as percentage compared to control (<0.5% DMSO). […] The selective index (SI) of the fatty acid esters of phloridzin is defined as the ratio of cytotoxicity (EC50 values) on normal HP-F cells to solid cancer HepG2, MDA-MB-231 cells (SI = EC50 on HP-F cells/EC50 on solid cancer cells). Samples with SI values greater than three were considered to have high selectivity towards cancer cells.

[1] = tested on: normal human hepatocytes (HP-F); experiment: MTS cell viability assay, normal human hepatocytes; assay type: cell-based; details: 24 h
Experimental: as §1

HepG2 cells [2] = experiment: LDH release cytotoxicity assay; assay type: cell-based, human; details: HepG2, 100 µM, 6 h, relative to maximum release by 1% Triton X-100
Experimental: Lactate dehydrogenase (LDH) is a stable cytosolic enzyme that is released upon membrane damage in apoptotic/necrotic cells. LDH activity was measured using CytoTox 96 Non-Radioactive Cytotoxicity Assay (Promega, Madison, WI, USA), in which LDH released in culture supernatants is measured with a coupled enzymatic assay, resulting in conversion of a tetrazolium salt into a red formazan product. […] After centrifugation, the supernatant was removed to an assay plate, and the LDH released from the cells into culture medium was measured. The maximal release was obtained after treating control cells with 1% Triton X-100 for 30 min at room temperature. The apoptotic/necrotic percentage was expressed using the formula: (sample value/maximal release)×100%.

HepG2 cells [3] = experiment: MTS cell proliferation assay, HepG2; assay type: cell-based, human; details: for EC50: MTS
Experimental: as §1

MDA-MB-231 cells = experiment: MTS cell proliferation assay, MDA-MB-231; assay type: cell-based, human; details: for EC50: MTS
Experimental: as §1

rat hepatocytes (RTCP10) = experiment: MTS cell viability assay, rat hepatocytes; assay type: cell-based; details: 100 µM, 24 h
Experimental: as §1, with “Samples with SI values greater than three were considered to have high selectivity towards cancer cells.” left out

HepG2 cells [4] = experiment: Mitochondrial membrane potential (JC-1); assay type: cell-based, human; details: HepG2, 100 µM, 24 h
Experimental: HepG2 cells were seeded in a black walled clear bottom 96-well sterile flat bottom tissue culture plates (BD Biosciences, USA) at a density of 5×10^4 cells/well (100 µL) and incubated in a CO2 incubator for 24 h at 37°C. […] The staining solution JC-1 was prepared with PBS and 5 µM was added to each well. The cells were further incubated in a CO2 incubator at 37°C for 1 h. After washing the plate with PBS twice, the fluorescence was measured using a Fluostar Optima microplate reader (BMG Labtech) at 535 nm for JC-1 monomers and at 590 nm for JC-1 aggregates.

HepG2 cells [5] = experiment: DNA fragmentation (apoptotic DNA ladder); assay type: cell-based, human; details: HepG2, 100 µM, 24 h, agarose gel
Experimental: HepG2 (1×10^5) cells were seeded in 24-well culture plates and were allowed to adhere overnight. […] The plates were re-incubated for another 24 h. DNA fragmentation was detected using ApoTarget Quick Apoptotic DNA Ladder Detection Kit (Invitrogen, Burlington, ON, Canada) according to the manufacturer’s protocol. The principle involves detecting the internucleosomal DNA fragments formed during apoptosis. Briefly, floating dead cells and trypsinized adherent cells were collected and centrifuged at 1,000 rpm for 10 min. After washing with diluted phosphate buffered saline, the cells were lysed with 35 µL TE lysis buffer (a kit component). To the lysate, 5 µL of Enzyme A (a kit component) was added and incubated at 37°C for 10 min. Afterwards, 5 µL of Enzyme B (a kit component) was added, gently mixed and incubated at 50°C for 30 min. The DNA was precipitated with the ammonium acetate and absolute ethanol at −20°C. After centrifugation (10 min at 12,000 rpm) and air drying, the DNA pellet was dissolved in 30 µL of DNA suspension buffer. For detecting the DNA ladder, the extracted DNA samples were run on a 1.2% agarose gel containing 0.5 µg/mL gel red in Tris-Borate-EDTA (TBE) buffer. After electrophoresis, the gel image was captured using Gel Doc 100 system (Bio-Rad, Mississauga, ON, Canada).

HepG2 cells [6] = experiment: Morphologic observation under inverted phase contrast microscope; assay type: cell-based, human; details: HepG2, 100 µM, 24 h
Experimental: After 24 h of treatment, the morphology of HepG2 cells was observed under an inverted phase contrast microscope (Nikon Eclipse E 100, Nikon, Mississauga, ON, Canada) and were captured at 400X magnification using Infinity digital microscopy camera (Lumenera corporation, Ottawa, ON, Canada).

[7] = tested on: caspase 3 activity of HepG2 cells; experiment: Caspase-3 colorimetric activity assay; assay type: cell-based, human; details: HepG2, 100 µM, 24 h, compared to DMSO control
Experimental: The activity of caspase 3 enzyme was measured using caspase 3 colorimetric assay kit purchased from Sigma-Aldrich. […] Cells were lysed and the protein content of cell lysate was quantified by the BCA protein assay (Thermo Fisher Scientific Inc., Ottawa, ON, Canada). Caspase-3 activity was measured in the 200 µg of cell lysate using the caspase-specific peptide substrate, DEVD (Asp-Glu-Val-Asp), conjugated to reporter p-nitroanaline (ρ-NA) molecules.

human DNA topo IIα = target: T1, human DNA topo IIα (Homo sapiens, UniProt P11388); experiment: Topoisomerase IIα catalytic activity (pHOT1 DNA relaxation); assay type: biochemical; details: 100 µM, 4 units enzyme, 37°C 30 min
T1 construct: purchased TopoGEN, Inc., Columbus, OH, USA
Experimental: The topo IIα catalytic activity was monitored via electrophoresis using topoisomerase II drug screening kit (TopoGEN, Inc., Columbus, OH, USA). Briefly, 20 µL of reaction mixtures contained 0.5 M Tris-HCl, pH 8.0, 1.5 M NaCl, 100 mM MgCl2, 20 mM ATP, 300 µg BSA/mL and 5 mM dithiothreitol. Supercoiled DNA (pHOT1 DNA), supercoiled provided in the kit was determined to be ideal for this assay because it is small and easy to handle and has a large number of topo IIα recognition elements. […] The reaction was terminated by adding 2 µL of 10% sodium dodecyl sulfate (SDS) followed by digestion with 2 µL of proteinase K (50 µg/mL) at 37°C for 15 min to degrade enzyme. After adding 2 µL of loading buffer (0.25% bromophenol blue and 50% glycerol) was added to the mixture, samples were loaded onto 1% agarose gel. Electrophoresis was conducted at 66 V (2 V/cm) for 5 h in TBE buffer using Biorad Electrophoretic Gel System (Bio-Rad, Hercules, CA, USA). Supercoiled DNA (pHOT1 DNA) and relaxed DNA were included in the electrophoresis run as markers for DNA topology. Gels were then stained in 0.5 µg/mL gel red in TBE for 30 min and destained for 15 min in distilled water prior to digital image acquisition using Gel Doc 100 system (Bio-Rad, Hercules, CA, USA).
One unit of topoisomerase II activity was defined as the minimum amount of enzyme required to achieve complete relaxation of […] superhelical pHOT1 DNA in 30 min at 37°C. […] The percent of inhibition was calculated by the following formula: [drawing 1] Where Scontrol is the percent of supercoiled DNA in the control lane (without enzyme and test compounds), S0 is the percent of supercoiled DNA in the lane without test compounds and S is the percent of supercoiled DNA in the lane with test compounds and enzyme.

T1 sequence (P11388 whole entry): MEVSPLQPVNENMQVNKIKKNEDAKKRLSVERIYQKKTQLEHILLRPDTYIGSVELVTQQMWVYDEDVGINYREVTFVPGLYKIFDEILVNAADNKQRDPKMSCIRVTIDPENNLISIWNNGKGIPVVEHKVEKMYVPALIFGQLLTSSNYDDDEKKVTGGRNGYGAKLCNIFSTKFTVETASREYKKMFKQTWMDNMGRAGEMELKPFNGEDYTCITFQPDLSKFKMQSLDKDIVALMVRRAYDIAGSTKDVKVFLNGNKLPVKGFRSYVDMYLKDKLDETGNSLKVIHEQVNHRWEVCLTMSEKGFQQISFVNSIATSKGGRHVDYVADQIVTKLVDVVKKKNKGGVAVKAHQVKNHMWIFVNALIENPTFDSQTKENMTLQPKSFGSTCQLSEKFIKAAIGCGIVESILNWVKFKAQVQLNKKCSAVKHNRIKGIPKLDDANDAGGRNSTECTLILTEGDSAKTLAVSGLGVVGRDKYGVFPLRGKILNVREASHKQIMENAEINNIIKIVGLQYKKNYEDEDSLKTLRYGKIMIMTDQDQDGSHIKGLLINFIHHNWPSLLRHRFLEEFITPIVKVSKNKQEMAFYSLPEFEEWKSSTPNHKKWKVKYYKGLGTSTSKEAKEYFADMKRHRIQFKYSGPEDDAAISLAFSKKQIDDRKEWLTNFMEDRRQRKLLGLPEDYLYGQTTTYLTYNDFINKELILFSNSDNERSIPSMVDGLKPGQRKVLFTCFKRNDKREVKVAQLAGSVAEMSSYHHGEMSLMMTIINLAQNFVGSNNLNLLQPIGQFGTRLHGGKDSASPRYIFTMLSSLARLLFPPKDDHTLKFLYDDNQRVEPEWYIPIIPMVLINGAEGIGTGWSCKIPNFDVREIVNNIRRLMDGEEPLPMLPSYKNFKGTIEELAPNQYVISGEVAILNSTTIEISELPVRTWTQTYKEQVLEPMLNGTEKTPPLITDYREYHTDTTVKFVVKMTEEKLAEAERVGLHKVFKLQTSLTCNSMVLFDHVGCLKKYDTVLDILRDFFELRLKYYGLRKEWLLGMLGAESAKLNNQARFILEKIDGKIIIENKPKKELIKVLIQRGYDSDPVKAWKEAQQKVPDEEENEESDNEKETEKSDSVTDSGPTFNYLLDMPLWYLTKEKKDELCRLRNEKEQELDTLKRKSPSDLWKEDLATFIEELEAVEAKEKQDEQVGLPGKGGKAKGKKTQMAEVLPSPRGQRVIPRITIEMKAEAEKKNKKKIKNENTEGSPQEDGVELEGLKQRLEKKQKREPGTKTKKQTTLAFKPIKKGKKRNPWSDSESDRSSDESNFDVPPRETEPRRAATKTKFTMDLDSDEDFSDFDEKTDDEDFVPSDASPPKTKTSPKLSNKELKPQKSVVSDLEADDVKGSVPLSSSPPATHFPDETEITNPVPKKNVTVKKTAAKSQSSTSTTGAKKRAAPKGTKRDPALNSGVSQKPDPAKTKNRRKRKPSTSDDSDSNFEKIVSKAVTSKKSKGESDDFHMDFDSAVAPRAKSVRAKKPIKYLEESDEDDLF

CC/C=C\C/C=C\C/C=C\C/C=C\C/C=C\CCCC(=O)OC[C@H]1O[C@@H](Oc2cc(O)cc(O)c2C(=O)CCc2ccc(O)cc2)[C@H](O)[C@@H](O)[C@@H]1O [Pz-EPA ester, eicosapentaenoic acid ester (EPA) of Pz]
EC50 (THP-1 cells; THP-1, 3 h): 27.9 ± 1.5 µM
EC50 (THP-1 cells; THP-1, 6 h): 19.9 ± 1.1 µM
EC50 (THP-1 cells; THP-1, 12 h): 17 ± 0.6 µM
EC50 (THP-1 cells; THP-1, 18 h): 15.8 ± 0.8 µM
EC50 (THP-1 cells; THP-1, 24 h): 14.8 ± 0.6 µM
EC50 [1]: > 100 µM
LDH release (HepG2 cells [2]): 82.7±1.5%
SI (selective index) (HepG2 cells [3]; EC50 of HP-F cells/EC50 on HepG2, 24 h): 7.4
EC50 (HepG2 cells [3]; HepG2, 3 h): 39.4 ± 2.8 µM
EC50 (HepG2 cells [3]; HepG2, 6 h): 37.8 ± 1.9 µM
EC50 (HepG2 cells [3]; HepG2, 12 h): 36 ± 2.1 µM
EC50 (HepG2 cells [3]; HepG2, 18 h): 33.1 ± 2.4 µM
EC50 (HepG2 cells [3]; HepG2, 24 h): 26.8 ± 1.8 µM
SI (selective index) (MDA-MB-231 cells; EC50 of HP-F cells/EC50 on MDA-MB-231, 24 h): 7.5
EC50 (MDA-MB-231 cells; MDA-MB-231, 3 h): 37.9 ± 2.2 µM
EC50 (MDA-MB-231 cells; MDA-MB-231, 6 h): 33.6 ± 1.8 µM
EC50 (MDA-MB-231 cells; MDA-MB-231, 12 h): 32.6 ± 1.8 µM
EC50 (MDA-MB-231 cells; MDA-MB-231, 18 h): 31.5 ± 2.3 µM
EC50 (MDA-MB-231 cells; MDA-MB-231, 24 h): 26.5 ± 1.1 µM

CCCCCCCCCCCCCCCCCC(=O)OC[C@H]1O[C@@H](Oc2cc(O)cc(O)c2C(=O)CCc2ccc(O)cc2)[C@H](O)[C@@H](O)[C@@H]1O [Pz-Stearic acid ester, stearic acid ester of Pz]
viability of rat hepatocytes (rat hepatocytes (RTCP10)): about 50%

CNC(=O)c1cc(Oc2ccc(NC(=O)Nc3ccc(Cl)c(C(F)(F)F)c3)cc2)ccn1 [Sorafenib, sorafenib]
EC50 ([1]; Hepatocyte): > 100 µM
mitochondrial membrane potential (HepG2 cells [4]): significant (P<0.05) reduction
internucleosomal DNA fragmentation (HepG2 cells [5]): clear DNA ladders
EC50 (HepG2 cells [3]; Homo sapiens, HepG2, 3 h): 67.5 ± 5.2 µM
EC50 (HepG2 cells [3]; Homo sapiens, HepG2, 6 h): 46.7 ± 3.5 µM
EC50 (HepG2 cells [3]; Homo sapiens, HepG2, 12 h): 17.3 ± 0.8 µM
EC50 (HepG2 cells [3]; Homo sapiens, HepG2, 18 h): 13.4 ± 0.9 µM
EC50 (HepG2 cells [3]; Homo sapiens, HepG2, 24 h): 10.7 ± 0.5 µM
apoptotic morphological changes (HepG2 cells [6]): morphological changes which are characteristic to apoptosis
caspase 3 activity [7]: significant (P<0.001) increase
catalytic activity of human DNA topo IIα (pHOT DNA relaxation) (human DNA topo IIα): inhibited catalytic activity
